From EP4389827A1, “AMINOGLYCOSIDE-LINKED PHOTOSENSITIZERS” (Centre National de la Recherche Scientifique, priority 2022, dated 2024)
Like-named read-outs stand apart in the source and are kept apart here.

Columns and labels:
S. aureus Newman = assay: Antibacterial photodynamic therapy on biofilm cells; type: cell-based, Staphylococcus aureus
Text: Compounds Neo-Ce6 and Tobra-Ce6 caused strong drop in survival for biofilms of A. baumannii […], P. aeruginosa species and S. aureus Mu50. […] Tobra-Ce6 had its strongest effect on A. baumannii DSM30011 with more than 4 log10 CFU/mL drop in survival and a drop of 1.7 log10 CFU/mL in P. aeruginosa PA14. Table 2: aPDT results for biofilm cells expressed in drop in the log10 CFU/mL compared to controls.

B. subtilis 168 = assay: Minimal inhibitory concentration (EUCAST), with or without 660 nm irradiation; type: cell-based, Bacillus subtilis; conditions: read-out: MIC
Description: (§1) Acinetobacter baumannii DSM30011, Bacillus subtilis 168, Pseudomonas aeruginosa PA14, P. aeruginosa PAO1, Staphylococcus aureus Mu50, S. aureus Newman and S. aureus USA300 were all grown in MHB-CA at 37°C with an agitation of 180 rpm. Candida albicans SC5314 was grown in yeast extract peptone dextrose broth at 35°C with an agitation of 180 rpm.
(§2) Minimal inhibitory concentrations (MICs) for selected bacteria were investigated according to the EUCAST guidelines. Serial dilutions of the compounds, photosensitizers and aminoglycosides were made in MHB-CA in 384-well plates. Stationary-phase cells were diluted in MHB-CA to have a final concentration of 5.5 × 10^5 CFU/mL. Samples were incubated in the dark for 20 minutes at 37°C and either irradiated at 660 nm for 30 minutes with a LED device or kept in the dark. Irradiated samples received a total of 168 mJ/mm^2. Plates were then incubated at 37°C for 18 hours and MICs were evaluated visually. Triplicates were done and the synergy, or fractional inhibitory concentration (FIC), was calculated according to Doern et al., 2014: FIC = (MIC of AB)/(MIC of A) + (MIC of AB)/(MIC of B) [formula]

E. coli KanR = assay: as above; type: cell-based
Description: as §2

E. coli pET-29 = assay: as above; type: cell-based
Description: as §2

K. pneumoniae LM21 = assay: as above; type: cell-based; conditions: read-out: MIC
Description: as §2

C. albicans SC5314 = assay: Minimal inhibitory concentration, with or without 660 nm irradiation; type: cell-based; conditions: Candida albicans, SC5314, light or radiation study, 18 h, read-out: MIC
Description: as §1, §2

P. aeruginosa PAO1 = assay: Antibacterial photodynamic therapy on planktonic cells (CFU count); type: cell-based; conditions: Pseudomonas aeruginosa, PAO1, light or radiation study, 0.5 h, 10 µM, irradiated, 5 J/mm^2 (Figure 5c), read-out: Survival drop
Description: as §1
(§3) Cells were brought to stationary phase by incubating them in MHB-CA for at least 18 hours at 37°C with 180 rpm and diluted to an optical density of 1.0 just before the experiment. Cells were incubated for 20 minutes with either the compounds, photosensitizers alone, or aminoglycosides alone. Unless stated otherwise, a concentration of 10 µM was used for all experiments and samples were irradiated for 30 minutes at 660 nm with the Solis-660C lamp from ThorLabs, receiving a total of 5 J/mm^2. After illumination, cells were washed with phosphate-buffered saline (PBS) 1X, serially diluted and plated on Mueller-Hinton agar. The next day, colony forming units (CFUs) were counted.

P. aeruginosa PA14 = assay: as above; type: cell-based; conditions: Pseudomonas aeruginosa, PA14, light or radiation study, 0.5 h, irradiated, 5 J/mm^2 (Figure 5a), read-out: Survival drop
Description: as §1, §3

[1] = test system: A. baumannii DSM30011 persister cells; assay: Antibacterial photodynamic therapy on persister cells; type: cell-based, Acinetobacter baumannii; conditions: persister cells (200 µM neomycin, 24 hours); aPDT, irradiated, 5 J/mm^2
Description: Persister cells were obtained after incubation with 200 µM of neomycin for 24 hours.

[2] = test system: P. aeruginosa PA14 persister cells; assay: as above; type: cell-based, Pseudomonas aeruginosa; conditions: persister cells (1 mM tobramycin, 24 hours); aPDT, 5 J/mm^2
Description: In P. aeruginosa PA14, persister cells were obtained by treating with 1 mM of tobramycin for 24 hours. The effect of aPDT was not as impactful (Figures 9a, 9b), but there was a slight drop of 1.6 and 1.1 log10 CFU/mL for Neo-Ce6 and Tobra-Ce6, respectively.

[3] = test system: S. aureus Newman persister cells; assay: as above; type: cell-based, Staphylococcus aureus; conditions: persister cells (24 hours, 1 mM neomycin); irradiated, 5 J/mm^2 (Figure 7a)
Description: Persister plateau and AG concentration varied from one species to another. In S. aureus USA300, a stable plateau was obtained following 6 hours of incubation with 2 mM of neomycin. […] This control is crucial to make sure that a persister state has been achieved. […] As there are no significant differences between irradiated and non-irradiated samples, however, the production of singlet oxygen may not be the factor leading to cell death. In S. aureus Newman, cells were treated for 24 hours with 1 mM of neomycin. […] Although this synergy does exist, like in S. aureus USA300, there is no significant difference in survival for irradiated and non-irradiated samples, except for Ce6.

[4] = with (+) irradiation, 660 nm 30 minutes, 168 mJ/mm^2

SMILES | drop in the log10 CFU/mL compared to controls (S. aureus Newman; + irradiation) [log10 CFU/mL] | drop in the log10 CFU/mL compared to controls (S. aureus Newman; - irradiation) [log10 CFU/mL] | MIC (B. subtilis 168; Bacillus subtilis, 168, light or radiation study, 18 h, without (-) irradiation) [µM] | MIC (B. subtilis 168; [4]) [µM] | MIC (E. coli KanR; Escherichia coli, light or radiation study, 18 h) [µM] | MIC (E. coli KanR; [4]) [µM] | MIC (E. coli pET-29; Escherichia coli, PET29, light or radiation study, 18 h, without (-) irradiation) [µM] | MIC (E. coli pET-29; [4]) [µM] | MIC (K. pneumoniae LM21; Klebsiella pneumoniae, LM21, light or radiation study, 18 h, without (-) irradiation) [µM] | MIC (K. pneumoniae LM21; [4]) [µM] | MIC (C. albicans SC5314; [4]) [µM] | MIC (C. albicans SC5314; without (-) irradiation) [µM] | log reduction at 10 µM (P. aeruginosa PAO1) | log reduction at 10 µM (P. aeruginosa PA14) | drop [1] [log10 CFU/mL] | drop [2] [log10 CFU/mL] | persister cell survival (in words) [3]
C=Cc1c(C)c2cc3nc(c(CC(=O)O)c4[nH]c(cc5nc(cc1[nH]2)C(C)=C5CC)c(C)c4C(=O)O)[C@@H](CCC(=O)O)[C@@H]3C [Ce6, chlorin e6] | 0.57 | -0.19 | > 64 | > 64 | > 64 | > 64 | > 64 | > 64 | > 64 | > 64 | 32 | > 64 | – | – | – | – | –
C=Cc1c(C)c2cc3nc(c(CC(=O)O)c4[nH]c(cc5nc(cc1[nH]2)C(C)=C5CC)c(C)c4C(=O)O)[C@@H](CCC(=O)NC[C@H]1O[C@H](O[C@@H]2[C@@H](O)[C@H](O[C@H]4O[C@H](CN)[C@@H](O)C[C@H]4N)[C@@H](N)C[C@H]2N)[C@H](O)[C@@H](N)[C@@H]1O)[C@@H]3C [Tobra-Ce6] | 1.36 | 0.49 | – | – | – | – | – | – | – | – | – | – | 3.5 | 2.6 | 1.8 | 1.1 | significantly lower than in cells treated with Ce6 alone
